What was measured:
[1] = test system: virus isolate from an eye IDU treated with without result; experiment: VSA on a virus isolate from an eye treated with IDU without result (Example 3); type: cell-based
Protocol: (§1) Sterile plastic plates comprising 24 wells, each having a culture surface of 2.5 cm^2 and containing about 5 x 10^5 HL-cells/well were inoculated with 0.1 ml of virus dilutions as above. Such of the above virus dilutions only containing a small amount of virus are first cultured for 3 days in HL-cells, on which virus replicates, after which the virus isolate from one cell passage is taken out, is diluted 1:30 and 0.1 ml of the dilutions is added to the plates as indicated above. The cells are then incubated at a temperature of 32-37°C, with addition of different antiviral agents, and without any addition of antiviral agent to obtain reference values. Each antiviral agent is added in a dilution series comprising six different concentrations (Cl-C6), some of which correspond to desired serum concentrations for the treatment of patients. In table 1 is indicated the antiviral agents and concentrations thereof used.
(§2) The supernatant is sucked off and in order to achieve cell disrupture 800 µl of distilled water are added to the cells on the plates. The plates are frozen at -20°C and after some time sufficient for formation of ice crystals (about 15 min) the plates are thawed to room temperature for measurement of virus antigen. If desired, the plates can be preserved in a frozen state for a long time before they are thawed in order to carry out the measurement of virus antigen. When the plates have thawed 200 µl of NaCI of 4.5% are added to the cells in order to obtain an isotonic solution.
(§3) The amount of virus antigen formed is thereafter determined as follows. Guinea pig anti-HSV-serum is diluted in 0.1-M sodium carbonate buffer. 0.1 ml of the serum dilution is filled per well in microplates (M 29 AR, Dynatech, Zug, Switzerland) which have been washed three times with NaCI-solution of 0.9% containing 0.05% of Tween® 20, after which the plates are incubated for 16 hours at room temperature. The plates can be preserved sealed with their contents at +4°C up to 2-3 months.
(§4) 0.1 ml of the cell material obtained above or a known virus antigen is filled into plates treated with antibody and is incubated for 4 hours at +4°C. After washing with the washing solution indicated above 0.1 ml of rabbit anti-HSV is added and the plates are incubated for 2 hours at +37°C. The plates are washed and 0.1 ml of conjugate is added, after which they are incubated for 2 hours at +37°C. The conjugate consists of pig anti-rabbit IgG conjugated with alkaline phosphatase (Orion Diagnostica, Helsinki, Finland) in a dilution of 1:100. Non-bonded conjugate is washed off before 100 pl of the substrate p-nitrophenyl phosphate (1 mg/ml, Sigma, St Louis, MO, USA) are added. For dilution of the substrate 1 M diethanol buffer, pH 9.8 containing 0.5 x 10-^3 M MgC12 is used and for dilution of antisera and conjugate phosphate buffer (PBS), pH 7.3-7.4 with 0.5% of Tween® 20, 0.5% of BSA (bovine serum albumin) and 0.02% of NaN3 is used. The reaction is stopped after 20-60 min with 0.025 ml of 5 M NaOH. The absorbance (A) is thereafter read at 405 nm with Titertek Multiskan® (Flow Laboratories, Irvine, Scotland).

[2] = test system: HSV; experiment: Virus sensitivity assay (VSA): HSV patient material replicated in HL-cells with antiviral agent, cell disruption, virus antigen by ELISA sandwich technique (Example 1); type: cell-based, herpes simplex virus (HSV); conditions: for absorbance (A) at 405 nm: disrupted cells, culture of 1 to 3 days; for sensitivity of the investigated HSV to the antiviral agent: read from Fig. 1
Protocol: A material from a patient containing living HSV is mixed with a small amount of Eagle's tissue culture medium containing 2% of calf serum, 100 IE penicillin/ml and 100 […] of streptomycin/ml, after which the virus mixture is diluted 1:30 in this medium.
as §1
As a background control of virus replication taking place and for a direct typing of virus 2 cell containing wells/plate are inoculated with a mixture of 0.1 ml virus dilution and 0.05 ml of Brij-58 of 1%.
After a culture of 1 to 3 days the effect of the antiviral agents is then evaluated by measurement with ELISA sandwich technique as described below. However, the cells are treated in the following way before this measurement.
as §2
as §3, with “months. The optimal antibody concentration has been determined by antibody titration with the respective antigen and control antigen.” for “months.”
as §4, with “Scotland). […]” for “Scotland).”

[3] = serum; desired concentrations for the treatment of patients; cited from earlier work
[4] = C1: Ara-A 5, ACV 0.15, PFA 25, IDU 0.5 μM, C0 (no agent) 1.605
[5] = C2: Ara-A 10, ACV 0.31, PFA 50, IDU 1 μM, C0 1.605
[6] = C3: Ara-A 20, ACV 0.63, PFA 100, IDU 2 μM, C0 1.605
[7] = C4: Ara-A 40, ACV 1.25, PFA 200, IDU 4 μM, C0 1.605
[8] = C5: Ara-A 80, ACV 2.5, PFA 400, IDU 8 μM, C0 1.605
[9] = C6: Ara-A 160, ACV 5, PFA 800, IDU 16 μM, C0 1.605
[10] = C1: Ara-A 5, ACV 0.15, PFA 25, IDU 0.5 μM, C0 (no agent) 1.425
[11] = C2: Ara-A 10, ACV 0.31, PFA 50, IDU 1 μM, C0 1.425
[12] = C3: Ara-A 20, ACV 0.63, PFA 100, IDU 2 μM, C0 1.425
[13] = C4: Ara-A 40, ACV 1.25, PFA 200, IDU 4 μM, C0 1.425
[14] = C5: Ara-A 80, ACV 2.5, PFA 400, IDU 8 μM, C0 1.425
[15] = C6: Ara-A 160, ACV 5, PFA 800, IDU 16 μM, C0 1.425

SMILES	adsorbance values [1, 4]	adsorbance values [1, 5]	adsorbance values [1, 6]	adsorbance values [1, 7]	adsorbance values [1, 8]	adsorbance values [1, 9]	absorbance (A) at 405 nm [2, 10]	absorbance (A) at 405 nm [2, 11]	absorbance (A) at 405 nm [2, 12]	absorbance (A) at 405 nm [2, 13]	absorbance (A) at 405 nm [2, 14]	absorbance (A) at 405 nm [2, 15]	sensitivity of the investigated HSV to the antiviral agent [2]	Serum concentrations used clinically [3]
Nc1nc2c(ncn2COCCO)c(=O)[nH]1 [ACV, acyclovir]	1.608	1.615	1.594	1.179	1.475	1.415	1.382	1.135	0.958	0.810	0.547	0.361	high sensitivity	–
O=C(O)P(=O)(O)O [PFA, phosphonoformic acid]	1.487	1.502	0.656	0.216	0.092	0.083	1.437	1.391	1.346	1.321	0.893	0.310	a lower one	100 μM or IU/ml
